Assay results as given in patent EP2910557A1, “Enantiopure tetrasubstituted pyrrolidines as scaffolds for proteasome inhibitors and medicinal applications thereof” (Ikerchem, S.L., priority 2014, dated 2015).

Target: T1, Human erythrocyte 20S proteasome (Homo sapiens, UniProt P28074)
T1 construct: Enzyme: Human erythrocyte 20S proteasome; from tissue; host or cells: human erythrocytes
Experiment: In vitro enzymatic assay of proteasome inhibitory activity (Suc-Leu-Leu-Val-Tyr-AMC substrate)
Type: biochemical
Conditions: for inhibition at 0.5 µM: Concentration 500 nM; for IC50: human erythrocyte 20S proteasome, 10 µM Suc-Leu-Leu-Val-Tyr-AMC, 37°C; for inhibition at 1 µM: Concentration 1000 nM
Method: Example 20: In vitro enzymatic assay of proteasome inhibitory activity.
Substrate: Suc-Leu-Leu-Val-Tyr-AMC
Assay buffer: 250 mM HEPES, pH 7.5, 0.5 mM EDTA, 0.03% SDS, 0.05% Igepal CA-630.
Enzyme: Human erythrocyte 20S proteasome
In vitro proteasome inhibitory activity of the compounds of the invention is evaluated by spectrofluorimetric quantitation of AMC. Stock solutions of compounds of the invention are prepared in dimethyl sulphoxide (DMSO). Test compound and/or vehicle is preincubated with […] enzyme (human erythrocyte 20S proteasome) in modified HEPES buffer pH 7.5 and 1% final concentration of DMSO for 15 minutes at 37°C. The reaction is initiated by addition of 10 µM Suc-Leu-Leu-Val-Tyr-AMC for another 30 minutes incubation period at 37°C. Determination of the release of AMC is read spectrophotometrically (excitation, 380 nm; emission, 460 nm). IC50 values are determined by a non-linear, least squares regression analysis using MathlQTM (ID Business Solutions Ltd., UK).

| Structure (SMILES) | inhibition at 0.5 µM [%] | IC50 [µM] | inhibition at 1 µM [%] | inhibition at 0.1 µM (Concentration 100 nM) [%] | inhibition at 0.05 µM (Concentration 50 nM) [%] |
| --- | --- | --- | --- | --- | --- |
| CC(C)C[C@H](NC(=O)[C@@H]1N[C@H](c2ccccc2)[C@@H]([N+](=O)[O-])[C@@H]1c1ccc([N+](=O)[O-])cc1)B(O)O [Example 8, (R)-3-methyl-1-((2R,3R,4S,5R)-4-nitro-3-(4-nitrophenyl)-5-phenylpyrrolidine-2-carboxamido)butylboronic acid] | 69 | 0.15 |  |  |  |
| CC(C)C[C@H](NC(=O)[C@H]1N[C@@H](c2ccccc2)[C@H]([N+](=O)[O-])[C@H]1c1ccccc1)B(O)O [Example 2, (R)-3-methyl-1-((2S,3S,4R,5S)-4-nitro-3,5-diphenylpyrrolidine-2-carboxamido)butylboronic acid] |  | 0.43 | 70 |  |  |
| CC(C)C[C@H](NC(=O)[C@@H]1N[C@H](c2ccccc2)[C@@H]2C(=O)N(C)C(=O)[C@@H]21)B(O)O [Example 19, (R)-3-methyl-1-((1R,3S,3aR,6aS)-5-methyl-4,6-dioxo-3-phenyloctahydropyrrolo[3,4-c]pyrrole-1-carboxamido)butylboronic acid] |  | 0.046 |  | 68 |  |
| CC(C)C[C@H](NC(=O)[C@H]1N[C@@H](c2ccccc2)[C@H]2C(=O)N(C)C(=O)[C@H]21)B(O)O [Example 18, (R)-3-methyl-1-((1S,3R,3aS,6aR)-5-methyl-4,6-dioxo-3-phenyloctahydropyrrolo[3,4-c]pyrrole-1-carboxamido)butylboronic acid] |  | 0.92 | 53 |  |  |
| CC(C)C[C@H](NC(=O)[C@@H]1N[C@H](c2ccccc2)[C@@H]([N+](=O)[O-])[C@@H]1c1ccc2ccccc2c1)B(O)O [Example 9, (R)-3-methyl-1-((2R,3R,4S,5R)-3-(naphthalen-2-yl)-4-nitro-5-phenylpyrrolidine-2-carboxamido)butylboronic acid] | 69 | 0.15 |  |  |  |
| Cc1ccc([C@H]2[C@H]([N+](=O)[O-])[C@@H](c3ccccc3)N[C@H]2C(=O)N[C@@H](CC(C)C)B(O)O)cc1 [Example 5, (R)-3-methyl-1-((2R,3R,4S,5R)-4-nitro-5-phenyl-3-p-tolylpyrrolidine-2-carboxamido)butylboronic acid] | 77 | 0.078 |  |  |  |
| CC(C)C[C@H](NC(=O)[C@@H]1N[C@H](c2cccc3ccccc23)[C@H]([N+](=O)[O-])[C@H]1c1ccccc1)B(O)O [Example 16, (R)-3-methyl-1-((2R,3S,4R,5R)-5-(naphthalen-1-yl)-4-nitro-3-phenylpyrrolidine-2-carboxamido)butylboronic acid] | 33 |  |  |  |  |
| CC(C)C[C@H](NC(=O)[C@@H]1N[C@H](c2cccnc2)[C@@H]([N+](=O)[O-])[C@@H]1c1ccccc1)B(O)O [Example 15, (R)-3-methyl-1-((2R,3R,4S,5R)-4-nitro-3-phenyl-5-(pyridin-3-yl)pyrrolidine-2-carboxamido)butylboronic acid] | 72 | 0.1 |  |  |  |
| CC(C)C[C@H](NC(=O)[C@@H]1N[C@H](c2cccc3ccccc23)[C@@H]([N+](=O)[O-])[C@@H]1c1ccccc1)B(O)O [Example 13, (R)-3-methyl-1-((2R,3R,4S,5R)-5-(naphthalen-1-yl)-4-nitro-3-phenylpyrrolidine-2-carboxamido)butylboronic acid] |  | 0.039 |  |  | 54 |
| COC(=O)[C@H]1[C@H](C(=O)OC)[C@H](c2ccccc2)N[C@@H]1C(=O)N[C@@H](CC(C)C)B(O)O [Example 17, (R)-1-((2S,3S,4S,5R)-3,4-bis(methoxycarbonyl)-5-phenylpyrrolidine-2-carboxamido)-3-methylbutylboronic acid] | 20 |  |  |  |  |
